Reference: patent US10597388B2, “Pyridazinone herbicides” (FMC CORPORATION, priority 2014, dated 2020)

Assays:
Experiment in all cases: Test D controlled growth environment herbicide test, pre- and postemergence
Type in all cases: in vivo
[1] = test system: windgrass (Apera spica-venti)
Text: (§1) Seeds of plant species selected from bluegrass (annual bluegrass, Poa annua), blackgrass (Alopecurus myosuroides), Canada thistle (Cirsium arvense), canarygrass (Phalaris minor), chickweed (common chickweed, Stellaria media), geranium, cutleaf (cutleaf geranium, Geranium dissectum), galium (catchweed bedstraw, Galium aparine), bromegrass, downy (downy bromegrass, Bromus tectorum), field poppy (Papaver rhoeas), field violet (Viola arvensis), foxtail, green (green foxtail, Setaria viridis), deadnettle (henbit deadnettle, Lamium amplexicaule), ryegrass, Italian (Italian ryegrass, Lolium multiflorum), kochia (Kochia scoparia), lambsquarters (Chenopodium album), oilseed rape (Brassica napus), pigweed (Amaranthus retroflexus), chamomile (scentless chamomile, Matricaria inodora), Russian thistle (Salsola kali), speedwell (bird's-eye speedwell, Veronica persica), barley, spring (spring barley, Hordeum vulgare), wheat, spring (spring wheat, Triticum aestivum), buckwheat, wild (wild buckwheat, Polygonum convolvulus), mustard, wild (wild mustard, Sinapis arvensis), oat, wild (wild oat, Avena fatua), radish, wild (wild radish, Raphanus raphanistrum), windgrass (Apera spica-venti), barley, winter (winter barley, Hordeum vulgare), and wheat, winter (winter wheat, Triticum aestivum) were planted into a silt loam soil and treated preemergence with test chemicals formulated in a non-phytotoxic solvent mixture which included a surfactant.
(§2) At the same time, these species were planted in pots containing Redi-Earth® planting medium (Scotts Company, 14111 Scottslawn Road, Marysville, Ohio 43041) comprising spaghnum peat moss, vermiculite, wetting agent and starter nutrients and treated with postemergence applications of the test chemicals formulated in the same manner. Plants ranged in height from 2 to 18 cm (1- to 4-leaf stage). Treated plants and controls were maintained in a controlled growth environment for 14 to 21 d after which time all species were compared to controls and visually evaluated. Plant response ratings, summarized in Table D, are based on a scale of 0 to 100 where 0 is no effect and 100 is complete control. A dash (-) response means no test result.

[2] = test system: Russian thistle (Salsola kali)
Text: as §1, §2

[3] = test system: field violet (Viola arvensis)
Text: as §1, §2

[4] = test system: barley, winter (winter barley, Hordeum vulgare)
Text: as §1, §2

[5] = test system: bluegrass (annual bluegrass, Poa annua)
Text: as §1, §2

[6] = test system: speedwell (bird's-eye speedwell, Veronica persica)
Text: as §1, §2

[7] = test system: oat, wild (wild oat, Avena fatua)
Text: as §1, §2

[8] = test system: wheat, winter (winter wheat, Triticum aestivum)
Text: as §1, §2

[9] = test system: pigweed (Amaranthus retroflexus)
Text: as §1, §2

[10] = test system: radish, wild (wild radish, Raphanus raphanistrum)
Text: as §1, §2

[11] = Postemergence, 31 g ai/ha, scale 0 to 100 (0 no effect, 100 complete control)
[12] = Postemergence, 125 g ai/ha, visual rating on scale 0 (no effect) to 100 (complete control), 14 to 21 d
[13] = Postemergence, 250 g ai/ha, scale 0 to 100 (0 no effect, 100 complete control)
[14] = postemergence, 62 g ai/ha, scale 0 to 100, 0 no effect, 100 complete control
[15] = Preemergence, 62 g ai/ha, scale 0 to 100 (0 no effect, 100 complete control)
[16] = Preemergence, 125 g ai/ha, scale 0 to 100 (0 no effect, 100 complete control)
[17] = Preemergence, 250 g ai/ha, scale 0 to 100, 0 no effect, 100 complete control

Cc1cc(C)c2ccccc2c1-c1c(O)c(C)nn(C)c1=O [Compound 21]
Windgrass plant response rating [1, 11]: 70 | Plant response rating, Windgrass [1, 12]: 85 | Plant response rating, Windgrass [1, 13]: 85 | Plant response rating, Windgrass [1, 14]: 80 | Russian Thistle plant response rating [2, 11]: 70 | Plant response rating, Russian Thistle [2, 12]: 80 | Plant response rating, Russian Thistle [2, 13]: 85 | Plant response rating, Russian Thistle [2, 14]: 75 | Field Violet plant response rating [3, 11]: 95 | Plant response rating, Field Violet [3, 12]: 100 | Plant response rating, Field Violet [3, 13]: 100 | Plant response rating, Field Violet [3, 14]: 95 | Plant response rating, Barley, Winter [4, 11]: 0 | Plant response rating, Barley, Winter [4, 12]: 30 | Plant response rating, Barley, Winter [4, 13]: 40 | Plant response rating, Barley, Winter [4, 14]: 10 | Bluegrass plant response rating [5, 11]: 20 | Plant response rating, Bluegrass [5, 12]: 35 | Plant response rating, Bluegrass [5, 13]: 50 | Plant response rating, Bluegrass [5, 14]: 30 | Speedwell plant response rating [6, 11]: 100 | Plant response rating, Speedwell [6, 12]: 100 | Plant response rating, Speedwell [6, 13]: 100 | Plant response rating, Speedwell [6, 14]: 100 | Oat, Wild plant response rating [7, 11]: 80 | Plant response rating, Oat, Wild [7, 12]: 85 | Plant response rating, Oat, Wild [7, 13]: 100 | Plant response rating, Oat, Wild [7, 14]: 85 | Wheat, Winter plant response rating [8, 11]: 20 | Plant response rating, Wheat, Winter [8, 12]: 35 | Plant response rating, Wheat, Winter [8, 13]: 40 | Plant response rating, Wheat, Winter [8, 14]: 25 | Pigweed plant response rating [9, 11]: 80 | Plant response rating, Pigweed [9, 12]: 90 | Plant response rating, Pigweed [9, 13]: 98 | Plant response rating, Pigweed [9, 14]: 85 | Radish, Wild plant response rating [10, 11]: 95 | Plant response rating, Radish, Wild [10, 12]: 100 | Plant response rating, Radish, Wild [10, 13]: 100 | Plant response rating, Radish, Wild [10, 14]: 100

Cc1nn(C)c(=O)c(-c2cccc3ccccc23)c1O [Compound 11, 5-hydroxy-2,6-dimethyl-4-(1-naphthalenyl)-3(2H)-pyridazinone]
Windgrass plant response rating [1, 11]: 10 | Plant response rating, Windgrass [1, 12]: 15 | Plant response rating, Windgrass [1, 13]: 20 | Plant response rating (scale of 0 to 100), Windgrass ([1]; Preemergence, 31 g ai/ha): 25 | Plant response rating, Windgrass [1, 15]: 35 | Plant response rating, Windgrass [1, 16]: 55 | Plant response rating, Windgrass [1, 17]: 75 | Plant response rating, Windgrass [1, 14]: 10 | Field Violet plant response rating [3, 11]: 65 | Plant response rating, Field Violet [3, 12]: 75 | Plant response rating, Field Violet [3, 13]: 90 | Plant response rating (scale of 0 to 100), Field Violet ([3]; Preemergence, 31 g ai/ha): 85 | Plant response rating, Field Violet [3, 15]: 100 | Plant response rating, Field Violet [3, 16]: 100 | Plant response rating, Field Violet [3, 17]: 100 | Plant response rating, Field Violet [3, 14]: 65 | Plant response rating, Barley, Winter [4, 11]: 20 | Plant response rating, Barley, Winter [4, 12]: 25 | Plant response rating, Barley, Winter [4, 13]: 40 | Plant response rating (scale of 0 to 100), Barley, Winter ([4]; Preemergence, 31 g ai/ha): 5 | Plant response rating, Barley, Winter [4, 15]: 5 | Plant response rating, Barley, Winter [4, 16]: 5 | Barley, Winter plant response rating [4, 17]: 20 | Plant response rating, Barley, Winter [4, 14]: 20 | Bluegrass plant response rating [5, 11]: 5 | Plant response rating, Bluegrass [5, 12]: 5 | Plant response rating, Bluegrass [5, 13]: 15 | Plant response rating (scale of 0 to 100), Bluegrass ([5]; Preemergence, 31 g ai/ha): 10 | Plant response rating, Bluegrass [5, 15]: 15 | Plant response rating, Bluegrass [5, 16]: 30 | Bluegrass plant response rating [5, 17]: 55 | Plant response rating, Bluegrass [5, 14]: 5 | Speedwell plant response rating [6, 11]: 0 | Plant response rating, Speedwell [6, 12]: 100 | Plant response rating, Speedwell [6, 13]: 100 | Plant response rating (scale of 0 to 100), Speedwell ([6]; Preemergence, 31 g ai/ha): 0 | Plant response rating, Speedwell [6, 15]: 15 | Plant response rating, Speedwell [6, 16]: 85 | Plant response rating, Speedwell [6, 17]: 100 | Plant response rating, Speedwell [6, 14]: 100 | Oat, Wild plant response rating [7, 11]: 40 | Plant response rating, Oat, Wild [7, 12]: 85 | Plant response rating, Oat, Wild [7, 13]: 98 | Plant response rating (scale of 0 to 100), Oat, Wild ([7]; Preemergence, 31 g ai/ha): 15 | Plant response rating, Oat, Wild [7, 15]: 70 | Plant response rating, Oat, Wild [7, 16]: 80 | Plant response rating, Oat, Wild [7, 17]: 85 | Plant response rating, Oat, Wild [7, 14]: 75 | Wheat, Winter plant response rating [8, 11]: 10 | Plant response rating, Wheat, Winter [8, 12]: 15 | Plant response rating, Wheat, Winter [8, 13]: 25 | Plant response rating (scale of 0 to 100), Wheat, Winter ([8]; Preemergence, 31 g ai/ha): 0 | Plant response rating, Wheat, Winter [8, 15]: 0 | Plant response rating, Wheat, Winter [8, 16]: 20 | Plant response rating, Wheat, Winter [8, 17]: 30 | Plant response rating, Wheat, Winter [8, 14]: 15 | Pigweed plant response rating [9, 11]: 35 | Plant response rating, Pigweed [9, 12]: 95 | Plant response rating, Pigweed [9, 13]: 100 | Plant response rating (scale of 0 to 100), Pigweed ([9]; Preemergence, 31 g ai/ha): 0 | Plant response rating, Pigweed [9, 15]: 0 | Plant response rating, Pigweed [9, 16]: 98 | Plant response rating, Pigweed [9, 17]: 100 | Plant response rating, Pigweed [9, 14]: 65 | Radish, Wild plant response rating [10, 11]: 50 | Plant response rating, Radish, Wild [10, 12]: 60 | Plant response rating, Radish, Wild [10, 13]: 85 | Plant response rating (scale of 0 to 100), Radish, Wild ([10]; Preemergence, 31 g ai/ha): 10 | Plant response rating, Radish, Wild [10, 15]: 15 | Plant response rating, Radish, Wild [10, 16]: 20 | Plant response rating, Radish, Wild [10, 17]: 25 | Plant response rating, Radish, Wild [10, 14]: 30
